Data published in ChEMBL document CHEMBL1201862, “PubChem BioAssay data set” (2004).
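Briefly, cells in 96-well plates were exposed to five compound concentrations for 48 h, and endpoints were estimated by linear interpolation. Here, GI50 denotes the concentration required for 50% inhibition of growth.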 The source made the active and inactive calls. No stated cut-off is given here; in the data, active = GI50 up to about 1.1 µM and inactive = higher.

How the values were obtained:
Assay in all cases: growth of human tumour cells (NCI), 48 h
[1] = test system: 786-0
[2] = test system: A498
[3] = test system: CAKI-1
[4] = test system: CCRF-CEM
[5] = test system: DU-145
[6] = test system: HCT-15
[7] = test system: HL-60
[8] = test system: HT-29
[9] = test system: MDA-MB-231
[10] = test system: NCI/ADR-RES
[11] = test system: OVCAR-3
[12] = test system: PC-3
[13] = test system: RXF 393
[14] = test system: SF-268
[15] = test system: SN12C
[16] = test system: U-251
[17] = test system: UACC-257
[18] = test system: NCI-H460
[19] = test system: SNB-75
[20] = test system: UACC-62

SMILES | GI50 [1] | GI50 [2] | GI50 [3] | GI50 [4] | GI50 [5] | GI50 [6] [µM] | GI50 [7] | GI50 [8] | GI50 [9] | GI50 [10] | GI50 [11] | GI50 [12] | GI50 [13] | GI50 [14] | GI50 [15] | GI50 [16] | GI50 [17] | GI50 [18] | GI50 [19] | GI50 [20]
CCOc1cc(C2CC(c3ccc(NS(=O)(=O)c4cc([N+](=O)[O-])ccc4C)cc3)=NN2S(=O)(=O)c2cc([N+](=O)[O-])ccc2C)ccc1O (configuration not stated) | 33.3 µM (inactive) | 2.44 µM (inactive) | 42.9 µM (inactive) | 33 µM (inactive) | 43.8 µM (inactive) | 39 | 38.5 µM (inactive) | 49.3 µM (inactive) | 32.1 µM (inactive) | 39.4 µM (inactive) | 23.4 µM (inactive) | 32.7 µM (inactive) | 29 µM (inactive) | 39.7 µM (inactive) | 28.4 µM (inactive) | 30.7 µM (inactive) | 32.7 µM (inactive) | – | – | –
N#C/C(=C\c1ccc(Br)cc1)c1nc(-c2cc3ccccc3oc2=O)cs1 | 17 µM (inactive) | – | 48.4 µM (inactive) | 41.8 µM (inactive) | 15.7 µM (inactive) | 32.1 | > 50 µM (inactive) | 23.3 µM (inactive) | 10.1 µM (inactive) | 11.9 µM (inactive) | – | 21 µM (inactive) | 19.2 µM (inactive) | 14.5 µM (inactive) | 20 µM (inactive) | 9.93 µM (inactive) | 11.7 µM (inactive) | 16.7 µM (inactive) | 7.14 µM (inactive) | 10.2 µM (inactive)
CC1(C)CC(=O)c2c(nc3ccc4ccccc4c3c2-c2ccc(NC(=O)CCC(=O)Nc3ccc(-c4c5c(nc6ccc7ccccc7c46)CC(C)(C)CC5=O)cc3)cc2)C1 | > 100 µM (inactive) | – | > 100 µM (inactive) | > 100 µM (inactive) | > 100 µM (inactive) | – | > 100 µM (inactive) | > 100 µM (inactive) | > 100 µM (inactive) | > 100 µM (inactive) | > 100 µM (inactive) | > 100 µM (inactive) | > 100 µM (inactive) | > 100 µM (inactive) | > 100 µM (inactive) | > 100 µM (inactive) | > 100 µM (inactive) | > 100 µM (inactive) | 28.2 µM (inactive) | –
CC(=O)Nc1ccc(/C=C/C(=O)N2CC(CCl)c3c2cc(N)c2ccccc32)cc1 (configuration not stated) | < 0.005 µM (active) | < 0.005 µM (active) | < 0.005 µM (active) | < 0.005 µM (active) | < 0.005 µM (active) | < 0.005 | – | < 0.005 µM (active) | < 0.005 µM (active) | < 0.005 µM (active) | 0.0127 µM (active) | < 0.005 µM (active) | < 0.005 µM (active) | < 0.005 µM (active) | < 0.005 µM (active) | < 0.005 µM (active) | 0.0156 µM (active) | < 0.005 µM (active) | 0.01 µM (active) | < 0.005 µM (active)
CN1C[C@H]2[C@@H](C1=O)[C@H](c1ccccc1)ON2C | – | – | > 100 µM (inactive) | > 100 µM (inactive) | > 100 µM (inactive) | > 100 | > 10 µM (inactive) | > 100 µM (inactive) | > 100 µM (inactive) | > 100 µM (inactive) | > 100 µM (inactive) | > 100 µM (inactive) | – | – | > 100 µM (inactive) | > 100 µM (inactive) | > 100 µM (inactive) | > 100 µM (inactive) | > 100 µM (inactive) | –
CC(C)(C)[Si](C)(C)OCC1CCC(n2cnc3c(N)ncnc32)O1 (configuration not stated) | – | > 100 µM (inactive) | > 100 µM (inactive) | 13.9 µM (inactive) | 73.8 µM (inactive) | 72.1 | 48.9 µM (inactive) | 94.4 µM (inactive) | 54.1 µM (inactive) | – | 48.9 µM (inactive) | 28.2 µM (inactive) | 84.1 µM (inactive) | – | 69.2 µM (inactive) | > 100 µM (inactive) | 33.7 µM (inactive) | 54.7 µM (inactive) | 67.8 µM (inactive) | 59.2 µM (inactive)
N#Cc1c(N2CCOCC2)ncn(-c2ccccc2)c1=O | > 100 µM (inactive) | > 100 µM (inactive) | > 100 µM (inactive) | > 100 µM (inactive) | > 100 µM (inactive) | > 100 | 3.08 µM (inactive) | – | – | > 100 µM (inactive) | > 100 µM (inactive) | > 100 µM (inactive) | – | – | > 100 µM (inactive) | > 100 µM (inactive) | > 100 µM (inactive) | > 100 µM (inactive) | > 100 µM (inactive) | > 100 µM (inactive)
CC1(C)N=C(N)N=C(N)N1c1ccc(Cl)cc1 | 0.598 µM (active) | 58.6 µM (inactive) | 19.1 µM (inactive) | 2.74 µM (inactive) | 7.11 µM (inactive) | 7.11 | 15.4 µM (inactive) | 2.92 µM (inactive) | 21.7 µM (inactive) | > 100 µM (inactive) | – | 1.88 µM (inactive) | 53.2 µM (inactive) | 0.708 µM (active) | 6.71 µM (inactive) | 1.3 µM (inactive) | 26.5 µM (inactive) | 3.38 µM (inactive) | > 100 µM (inactive) | 4.84 µM (inactive)
CCOP(=O)(OCC)/C(C#N)=C/c1cccn1Cc1ccccc1 | 26.1 µM (inactive) | 34.3 µM (inactive) | 42.2 µM (inactive) | 27.2 µM (inactive) | 43.2 µM (inactive) | 29 | – | 32.7 µM (inactive) | 22.4 µM (inactive) | 26.2 µM (inactive) | 40.6 µM (inactive) | 31.9 µM (inactive) | 30.8 µM (inactive) | 43.5 µM (inactive) | 31.1 µM (inactive) | 22.6 µM (inactive) | 39.5 µM (inactive) | 31.9 µM (inactive) | 39.9 µM (inactive) | 19.9 µM (inactive)
Sc1nn2c(COc3cc(Cl)c(OCc4nnc5sc(S)nn45)cc3Cl)nnc2s1 | 39.5 µM (inactive) | > 100 µM (inactive) | > 100 µM (inactive) | – | 78.3 µM (inactive) | 33.1 | 37.8 µM (inactive) | 43.3 µM (inactive) | > 100 µM (inactive) | > 100 µM (inactive) | 30.5 µM (inactive) | > 100 µM (inactive) | 39.2 µM (inactive) | 44.6 µM (inactive) | 41.2 µM (inactive) | > 100 µM (inactive) | > 100 µM (inactive) | > 100 µM (inactive) | 82 µM (inactive) | 28.6 µM (inactive)
CCCCCCCC/C=C\CCCCCCCCNc1ccn(C2OC(COP(=O)(O)OC3CC(n4cc(F)c(=O)[nH]c4=O)OC3CO)C(O)C2O)c(=O)n1 (configuration not stated) | 0.195 µM (active) | – | 2.09 µM (inactive) | < 0.0215 µM (active) | 0.159 µM (active) | 2.48 | 1.25 µM (inactive) | 4.19 µM (inactive) | > 100 µM (inactive) | 3.36 µM (inactive) | > 87.5 µM (inactive) | 28.7 µM (inactive) | 9.62 µM (inactive) | < 0.0292 µM (active) | > 100 µM (inactive) | 2.89 µM (inactive) | > 37.7 µM (inactive) | – | 1.7 µM (inactive) | 0.223 µM (active)
Cc1ccc(S(=O)(=O)NC(=O)NC(Cc2ccccc2)C(=O)O)cc1 (configuration not stated) | > 100 µM (inactive) | – | – | > 100 µM (inactive) | > 100 µM (inactive) | > 100 | > 100 µM (inactive) | > 100 µM (inactive) | > 100 µM (inactive) | > 100 µM (inactive) | – | > 100 µM (inactive) | > 100 µM (inactive) | > 100 µM (inactive) | > 100 µM (inactive) | > 100 µM (inactive) | > 100 µM (inactive) | > 100 µM (inactive) | > 100 µM (inactive) | > 100 µM (inactive)
CC1=C2C(=C[C@H]3[C@]4(C)CCCC(C)(C)[C@H]4CC[C@]34O[C@H]24)OC1=O | > 100 µM (inactive) | > 100 µM (inactive) | – | – | > 100 µM (inactive) | > 100 | – | > 100 µM (inactive) | > 100 µM (inactive) | > 100 µM (inactive) | – | > 100 µM (inactive) | > 100 µM (inactive) | > 100 µM (inactive) | > 100 µM (inactive) | > 100 µM (inactive) | > 100 µM (inactive) | > 100 µM (inactive) | > 100 µM (inactive) | > 100 µM (inactive)
O=C1CSC(c2ccccc2)N1c1ccc(-c2ccc(-n3c(-c4ccccc4)nc4ccccc4c3=O)cc2)cc1 (configuration not stated) | 55 µM (inactive) | > 100 µM (inactive) | > 100 µM (inactive) | 37.2 µM (inactive) | 85.1 µM (inactive) | 29.2 | 27.4 µM (inactive) | 46.1 µM (inactive) | 40.9 µM (inactive) | 43.5 µM (inactive) | 46.5 µM (inactive) | 37.9 µM (inactive) | – | 49.4 µM (inactive) | > 100 µM (inactive) | 56.9 µM (inactive) | > 100 µM (inactive) | 46 µM (inactive) | – | 34.6 µM (inactive)
COc1cc(C2c3[nH]c4ccccc4c3[C@@H](Nc3ccc(F)cc3)[C@H]3COC(=O)N23)cc(OC)c1O (some centres not stated) | – | 2.13 µM (inactive) | 0.828 µM (active) | 0.296 µM (active) | 0.759 µM (active) | 1.66 | – | 3.12 µM (inactive) | 3.44 µM (inactive) | 8.13 µM (inactive) | 1.92 µM (inactive) | 1.91 µM (inactive) | – | 1.55 µM (inactive) | 1.35 µM (inactive) | 1.45 µM (inactive) | 3.77 µM (inactive) | 0.957 µM (active) | 1.69 µM (inactive) | 1.37 µM (inactive)
